Assay results taken from ChEMBL document CHEMBL3352246, “Design and synthesis of novel 5-(3,4,5-trimethoxybenzoyl)-4-aminopyrimidine derivatives as potent and selective phosphodiesterase 5 inhibitors: scaffold hopping using a pseudo-ring by intramolecular hydrogen bond formation” (Bioorg Med Chem Lett, 2014).

Assays:
[1] = Inhibition of light activated bovine retina PDE6 using [3H]cGMP substrate by radiolabeled nucleotide method; parameters: species or system Bos taurus
[2] = target: cGMP-specific 3',5'-cyclic phosphodiesterase (Canis lupus familiaris, UniProt O77746); assay: Inhibition of canine lung PDE5 using [3H]cGMP substrate by radiolabeled nucleotide method
Corpus cavernosum = assay: Relaxant activity in rabbit corpus cavernosum assessed as reduction in phenyepinephrine-induced contraction; type: functional, tissue-based; conditions: Oryctolagus cuniculus
[3] = Selectivity index, ratio of IC50 for light activated bovine retina PDE6 to IC50 for canine lung PDE5
[4] = target: cGMP-specific 3',5'-cyclic phosphodiesterase (Homo sapiens, UniProt O76074); assay: Inhibition of PDE5 (unknown origin)
[5] = Selectivity index, ratio of IC50 for trypsin activated bovine retina PDE6 to IC50 for PDE5 (unknown origin)
[6] = Selectivity index, ratio of IC50 for light activated bovine retina PDE6 to IC50 for PDE5 (unknown origin)

Row | Structure (SMILES) | IC50 [1] | IC50 [2] | EC50 (Corpus cavernosum) | Ratio IC50 [3] | IC50 [4] | Ratio IC50 [5] | Ratio IC50 [6]
1 | COC(=O)c1nc(N2CCC(O)CC2)c2cc(OCc3ccccc3)ccc2c1-c1cc(OC)c(OC)c(OC)c1 | 590 nM | 2 nM | – | – | – | – | –
2 | COC(=O)c1ncc2cc(OCc3ccccn3)ccc2c1-c1cc(OC)c(OC)c(OC)c1 | > 10000 nM | 34 nM | – | – | – | – | –
3 | COc1ccc(CNc2cc(OCc3ccccn3)ccc2C(=O)c2cc(OC)c(OC)c(OC)c2)cc1Cl | – | 0.66 nM | > 100 nM | 18000 | – | – | –
4 | COc1ccc(CNc2nc(OCc3ccccc3)ncc2C(=O)c2cc(OC)c(OC)c(OC)c2)cc1Cl | – | 0.38 nM | > 100 nM | 1600 | – | – | –
5 | COc1ccc(CNc2nc(N3CCOC(CO)C3)ncc2C(=O)c2cc(OC)c(OC)c(OC)c2)cc1Cl (stereo not given) | – | 1.8 nM | 11 nM | 2800 | – | – | –
6 | COCCOc1ncc(C(=O)c2cc(OC)c(OC)c(OC)c2)c(NCc2ccc(OC)c(Cl)c2)n1 | – | 1.7 nM | 10 nM | 2200 | – | – | –
7 | COc1ccc(CNc2nc(N3CCc4ccccc4C3)ncc2C(=O)c2cc(OC)c(OC)c(OC)c2)cc1Cl | – | 0.053 nM | > 100 nM | 3200 | – | – | –
8 | COc1ccc(CNc2nc(N3CCCCC3)ncc2C(=O)c2cc(OC)c(OC)c(OC)c2)cc1Cl | – | 0.74 nM | – | 2000 | – | – | –
9 | COc1ccc(CNc2nc(OCc3ccccn3)ncc2C(=O)c2cc(OC)c(OC)c(OC)c2)cc1Cl | – | 0.13 nM | 53 nM | 2400 | – | – | –
10 | COC(=O)c1nc(NCc2ccc(OC)c(Cl)c2)c2cc(OCc3ccccc3)ccc2c1-c1cc(OC)c(OC)c(OC)c1 | > 10000 nM | 3.5 nM | – | – | – | – | –
11 | COc1ccc(CNc2nc(N(C)CCO)ncc2C(=O)c2cc(OC)c(OC)c(OC)c2)cc1Cl | – | 2.7 nM | 29 nM | > 3700 | – | – | –
12 | COC(=O)c1c(-c2cc(OC)c(OC)c(OC)c2)c2ccc(OCc3ccccn3)cc2c(=O)n1-c1ccc(N)cc1 | – | – | – | – | 1 nM | 32 | 650
13 | COc1ccc(CN(C)c2nc(OCc3ccccn3)ncc2C(=O)c2cc(OC)c(OC)c(OC)c2)cc1Cl | – | 5 nM | – | – | – | – | –
14 | COc1ccc(CNc2nc(OCc3ncccn3)ncc2C(=O)c2cc(OC)c(OC)c(OC)c2)cc1Cl | – | 3.4 nM | 3.1 nM | 560 | – | – | –
15 | COc1ccc(COc2nc(OCc3ccccn3)ncc2C(=O)c2cc(OC)c(OC)c(OC)c2)cc1Cl | – | 1.5 nM | – | – | – | – | –
16 | COc1ccc(CNc2nc(N3CCOCC3)ncc2C(=O)c2cc(OC)c(OC)c(OC)c2)cc1Cl | – | 1.5 nM | > 100 nM | 6700 | – | – | –
